{"source": "patent US9765154B2", "about": "“Phosphohistidine analogs” (THE ROCKEFELLER UNIVERSITY, priority 2010, dated 2017)", "experiment": "ionization of the phosphonate group (pK values)", "format": "physicochemical", "from_the_text": "[drawing 33] it is isosteric with phosphorylated histidine. Further, the electrostatics of the phosphonoltriazolylalanine mimic those of phosphorylated Histidine. In particular, the phosphonate group of N-methyl-triazolylphosphonic acid is fully ionized at physiological pH (pK1=2.3 and pKA2=5.3), analogous to pHis.", "data": [{"substance": "N-methyl-triazolylphosphonic acid", "values": [{"measurement": "pK1 of the phosphonate group", "value": 2.3}, {"measurement": "pKA2 of the phosphonate group", "value": 5.3}]}]}
